In US10119168B2, “Methods for the treatment of kidney fibrosis” (priority 2014, dated 2018):

How the values were obtained:
mouse liver = assay: ANIT diet liver fibrosis model (Picrosirius red staining, qRT-PCR); conditions: ANIT diet 4 weeks vs control diet
Description: Fibrosis is a universal pathological finding for chronic diseases in any organ(14) and it would be useful to identify biomarkers of fibrosis that are specific for an organ or be able to indicate their origin.
Animals were housed in an Association for Assessment and Accreditation of Laboratory Animal Care International-accredited facility at Michigan State University and all procedures were approved by the Michigan State University Institutional Animal Care and Use Committee.
(§1) Formalin fixed, paraffin embedded kidney sections were Masson Trichrome's stained and evaluated by a renal pathologist under a light microscope in blinded fashion relative to sample group. Percent area of fibrosis relative to the total section area was evaluated. Sirius red staining of the […] sections was performed at the Michigan State University Investigative Histopathology Laboratory.
(§2) Total RNA was extracted from frozen kidney tissue using TRIzol reagent (Invitrogen). Following RNA concentration measurement by NanoDrop spectrophotometer (Thermo Fischer Scientific), 1 μg RNA was used for cDNA preparation using QuantiTect Reverse Transcription Kit from Qiagen (Valencia, Calif.). qRT-PCR using QuantiFast SYBR Green PCR Kit (Qiagen) was performed in 384-well plates on an Applied Biosystems 7900HT Fast Real-Time PCR System instrument with the following temperature profile: 3 min enzyme activation at 95° C. followed by 40 cycles of 95° C. for 10 s, and 55° C. for 30 s. Primer pairs used are listed in Supplementary Table 1. Gapdh was used as reference gene for normalization. The SDS 2.4 software (Applied Biosystems) was used to compute the threshold cycle (Cq) and the relative expression for an mRNA was assessed using the 2^−ΔCq method.

[1] = test system: kidney fibrosis after FA injection in mice; assay: Enalapril treatment in folic acid (FA) nephropathy model of kidney fibrosis (histology, qRT-PCR); assay type: in vivo, mouse; conditions: day 14
Protocol: Conversely, to test if the markers reflect recovery from fibrosis interventions on the renin-angiotensin system were used.
Mice were sacrificed at 1, 2, 3, 7 and 14 days following administration. […] All mice were sacrificed at 14 days.
as §1, §2

[2] = enalapril 200 mg/l in drinking water after FA injection, kidney qRT-PCR vs control

| SMILES | Mgp gene level (mouse liver) | Scn7a gene level (mouse liver) | Sytl2 gene level (mouse liver) | collagen 1a1 gene expression (mouse liver) | kidney fibrosis development (histological assessment) ([1]; enalapril 200 mg/l continuously in drinking water after FA injection, vs plain water control) | reduction of collagen 1a1 mRNA expression ([1]; enalapril 200 mg/l in drinking water after FA injection, kidney qRT-PCR) [fold] | Cdh11 gene expression level [1, 2] | Gabrp gene expression level [1, 2] | Mrc1 gene expression level [1, 2] | Scn7a gene expression level [1, 2] | Smoc2 gene expression level [1, 2] |
| --- | --- | --- | --- | --- | --- | --- | --- | --- | --- | --- | --- |
| S=C=Nc1cccc2ccccc12 [ANIT, α-naphthylisothiocyanate] | significantly higher (p<0.05) gene levels | significantly higher (p<0.05) gene levels | significantly higher (p<0.05) gene levels | significantly increased collagen 1a1 gene expression | – | – | – | – | – | – | – |
| CCOC(=O)[C@H](CCc1ccccc1)N[C@@H](C)C(=O)N1CCC[C@H]1C(=O)O [enalapril] | – | – | – | – | reduced kidney fibrosis development | ~3 | significant (p<0.05) decreases | significant (p<0.05) decreases | significant (p<0.05) decreases | significant (p<0.05) decreases | significant (p<0.05) decreases |
